Measured values taken from patent US4201774A, “Novel aminoglycoside derivatives” (Shionogi & Co., Ltd., priority 1977, dated 1980).
≈ marks a conversion by molar mass, not a printed value.

Experiments:
[1] = tested on: Proteus mirabilis TB-617; assay: MIC, Proteus mirabilis TB-617*; format: cell-based; conditions: TB617; Proteus mirabilis TB-617, tobramycin resistant strain; read-out: minimum inhibitory concentration (MIC)
[2] = tested on: Pseudomonas aeruginosa TB-485; assay: MIC, Pseudomonas aeruginosa TB-485*; format: cell-based; conditions: TB485; Pseudomonas aeruginosa TB-485, tobramycin resistant strain; read-out: minimum inhibitory concentration (MIC)

Work on NC[C@H]1O[C@H](O[C@H]2[C@H](O)[C@@H](O[C@H]3O[C@H](CO)[C@@H](O)[C@H](N)[C@H]3O)[C@H](NCC3(O)CNC3)C[C@@H]2N)[C@H](N)C[C@@H]1O [Test compound (1), 1-N-[(3-hydroxyazetidin-3-yl)methyl]tobramycin] yielded an MIC [1] of 1.56 µg/mL (≈ 2.82 µM) and an MIC [2] of 6.25 µg/mL (≈ 11.3 µM).
NC[C@H]1O[C@H](O[C@H]2[C@H](O)[C@@H](O[C@H]3O[C@H](CO)[C@@H](O)[C@H](N)[C@H]3O)[C@H](NCC3(O)CCNC3)C[C@@H]2N)[C@H](N)C[C@@H]1O (stereo partly shown) [Test compound (2), 1-N-[(3-hydroxypyrrolidin-3-yl)methyl]tobramycin] showed an MIC [1] of 1.56 µg/mL (≈ 2.75 µM) and an MIC [2] of 3.13 µg/mL (≈ 5.52 µM).
In the case of NC[C@H]1O[C@H](O[C@H]2[C@H](O)[C@@H](O[C@H]3O[C@H](CO)[C@@H](O)[C@H](N)[C@H]3O)[C@H](NCC3(O)CNC3)C[C@@H]2N)[C@H](O)[C@@H](O)[C@@H]1O [Test compound (3), 1-N-[(3-hydroxyazetidin-3-yl)methyl]kanamycin A], the MIC [1] is reported as 6.25 µg/mL (≈ 11 µM) and the MIC [2] is reported as 6.25 µg/mL (≈ 11 µM).
NC[C@H]1O[C@H](O[C@H]2[C@H](O)[C@@H](O[C@H]3O[C@H](CO)[C@@H](O)[C@H](N)[C@H]3O)[C@H](NCC3(O)CCNC3)C[C@@H]2N)[C@H](O)[C@@H](O)[C@@H]1O (stereo partly shown) [Test compound (4), 1-N-[(3-hydroxypyrrolidin-3-yl)methyl]kanamycin A] was tested, and the MIC [1] was 3.13 µg/mL (≈ 5.36 µM) and the MIC [2] was 6.25 µg/mL (≈ 10.7 µM).
Compound NC[C@H]1O[C@H](O[C@H]2[C@H](O)[C@@H](O[C@H]3O[C@H](CO)[C@@H](O)[C@H](N)[C@H]3O)[C@H](N)C[C@@H]2N)[C@H](N)C[C@@H]1O [Test compound (5), tobramycin, reference compound] has an MIC [1] of 6.25 µg/mL (≈ 13.4 µM) and an MIC [2] of 25 µg/mL (≈ 53.5 µM).
